Legend:
Details in all cases: 72 h
[1] = tested on: HepG2; experiment: drug sensitivity score (DSS) for viability; higher = more toxic; extreme values may be limits of the assay
[2] = tested on: Caco-2; experiment: as above
[3] = tested on: U2OS; experiment: as above
[4] = tested on: Calu-3; experiment: as above
[5] = tested on: Vero E6; experiment: as above
[6] = tested on: HepG2; experiment: cell viability relative to DMSO; higher = less toxic
[7] = tested on: Caco-2; experiment: as above
[8] = tested on: U2OS; experiment: as above
[9] = tested on: Calu-3; experiment: as above
[10] = tested on: Vero E6; experiment: as above
[11] = tested on: HepG2; experiment: relative viability EC50 (midpoint between 100% and the lowest measured viability); higher = less toxic
[12] = tested on: Caco-2; experiment: as above
[13] = tested on: U2OS; experiment: as above
[14] = tested on: Calu-3; experiment: as above
[15] = tested on: Vero E6; experiment: as above

| SMILES | drug sensitivity score [1] | drug sensitivity score [2] | drug sensitivity score [3] | drug sensitivity score [4] | drug sensitivity score [5] | cell viability ([6]; 1 nM) [%] | cell viability ([6]; 10 nM) [%] | cell viability ([6]; 100 nM) [%] | cell viability ([6]; 1000 nM) [%] | cell viability ([6]; 10000 nM) [%] | cell viability ([7]; 1 nM) [%] | cell viability ([7]; 10 nM) [%] | cell viability ([7]; 100 nM) [%] | cell viability ([7]; 1000 nM) [%] | cell viability ([7]; 10000 nM) [%] | cell viability ([8]; 1 nM) [%] | cell viability ([8]; 10 nM) [%] | cell viability ([8]; 100 nM) [%] | cell viability ([8]; 1000 nM) [%] | cell viability ([8]; 10000 nM) [%] | cell viability ([9]; 1 nM) [%] | cell viability ([9]; 10 nM) [%] | cell viability ([9]; 100 nM) [%] | cell viability ([9]; 1000 nM) [%] | cell viability ([9]; 10000 nM) [%] | cell viability ([10]; 1 nM) [%] | cell viability ([10]; 10 nM) [%] | cell viability ([10]; 100 nM) [%] | cell viability ([10]; 1000 nM) [%] | cell viability ([10]; 10000 nM) [%] | relative viability EC50 [11] [µM] | relative viability EC50 [12] [µM] | relative viability EC50 [13] [µM] | relative viability EC50 [14] [µM] | relative viability EC50 [15] [µM] |
| --- | --- | --- | --- | --- | --- | --- | --- | --- | --- | --- | --- | --- | --- | --- | --- | --- | --- | --- | --- | --- | --- | --- | --- | --- | --- | --- | --- | --- | --- | --- | --- | --- | --- | --- | --- |
| CCc1oc2ccccc2c1C(=O)c1cc(Br)c(O)c(Br)c1 [benzbromarone] | 0 | 1.7 | 0 | 0 | 0 | 109 | 101 | 96.4 | 102 | 102 | 101 | 93.5 | 105 | 83.1 | 89.9 | 99.9 | 94.8 | 102 | 102 | 105 | 104 | 90.5 | 105 | 99.4 | 107 | 103 | 108 | 104 | 105 | 99.8 | > 10 | > 10 | > 10 | > 10 | > 10 |
| C[N+]1(C)CCc2cc3c(cc2[C@H]1[C@@H]1OC(=O)c2c1ccc1c2OCO1)OCO3 [bicuculline-methochloride-(-)] | 0 | 2.5 | 0 | 0 | 0 | 101 | 98.7 | 93.9 | 92.8 | 108 | 101 | 118 | 98 | 81.9 | 97.3 | 95.1 | 99.9 | 99.2 | 98.9 | 100 | 89 | 104 | 85 | 88 | 110 | 98.6 | 97 | 99.2 | 103 | 100 | > 10 | > 10 | > 10 | > 10 | > 10 |
| CC(C)NCC(O)COc1ccc(COCCOC(C)C)cc1 (stereo not given) [bisoprolol] | 0 | 0 | 0 | 0 | 0 | 104 | 98.9 | 91.2 | 103 | 90.6 | 91.3 | 95.8 | 103 | 100 | 99.2 | 93.6 | 94 | 101 | 95 | 103 | 95.5 | 103 | 108 | 97.8 | 108 | 92 | 98.3 | 93.3 | 104 | 107 | > 10 | > 10 | > 10 | > 10 | > 10 |
| COc1cc(OC)c(C(=O)CCCN2CCCC2)c(OC)c1 [buflomedil] | 0 | 0 | 0 | 0 | 0 | 90.5 | 97.2 | 97.3 | 94.4 | 99 | 101 | 103 | 96.2 | 96 | 106 | 104 | 99.3 | 102 | 98.8 | 108 | 87.5 | 86.3 | 90.2 | 88.6 | 101 | 95.7 | 99 | 94.1 | 97.5 | 108 | > 10 | > 10 | > 10 | > 10 | > 10 |
| CCCCNC(=O)[C@@H]1Cc2ccccc2N1C(=O)[C@@H](N)CC [butabindide] | 0 | 0 | 0 | 0 | 0 | 106 | 97.2 | 109 | 108 | 106 | 89.3 | 99.2 | 86.1 | 103 | 108 | 95.9 | 98.9 | 95.7 | 106 | 106 | 95.2 | 99.7 | 97.1 | 97.1 | 128 | 98.7 | 88.4 | 98.9 | 91.7 | 101 | > 10 | > 10 | > 10 | > 10 | > 10 |
| C=C1/C(=C\C=C2/CCC[C@]3(C)[C@@H]([C@H](C)CCCC(C)(C)O)CC[C@@H]23)C[C@@H](O)C[C@@H]1O [calcitriol] | 0 | 0 | 0 | 0 | 0 | 116 | 112 | 102 | 92.6 | 96.2 | 101 | 104 | 105 | 101 | 92.5 | 100 | 104 | 95.9 | 103 | 92.8 | 100 | 106 | 96.7 | 101 | 96.8 | 106 | 102 | 104 | 98.1 | 97.8 | > 10 | > 10 | > 10 | > 10 | > 10 |
| CC1/C=C/C=C/C=C/C=C/C=C/C=C/C=C/C(OC2O[C@H](C)[C@@H](O)[C@H](N)[C@@H]2O)CC(O)C(C(=O)O)C(O)CC(=O)CC(O)CC(O)CC(O)CC(=O)CCCC(=O)CC(=O)OC1C(C)CC(C)C(O)CC(=O)c1ccc(N)cc1 (stereo not given in full) [candicidin] | 0 | 0 | 0 | 0 | 0.6 | 109 | 96.4 | 103 | 103 | 98.6 | 82 | 90.8 | 87.1 | 92 | 77.1 | 105 | 99.9 | 101 | 101 | 96.8 | 101 | 102 | 102 | 104 | 97.5 | 101 | 104 | 96.7 | 104 | 77.2 | > 10 | > 10 | > 10 | > 10 | > 10 |
| CNC(=O)ON(C(C)=O)C(=O)NC [caracemide] | 0 | 0 | 0 | 0 | 0 | 107 | 104 | 112 | 93.8 | 108 | 89.6 | 103 | 95.8 | 97.1 | 99.7 | 94.8 | 102 | 99.3 | 103 | 106 | 94 | 102 | 111 | 101 | 98.3 | 97.2 | 96.9 | 99.6 | 94.7 | 112 | > 10 | > 10 | > 10 | > 10 | > 10 |
| Cc1ccc(-c2cc(C(F)(F)F)nn2-c2ccc(S(N)(=O)=O)cc2)cc1 [celecoxib] | 0 | 0 | 0 | 0 | 0 | 115 | 98.4 | 99.3 | 100 | 95.1 | 99.1 | 79.8 | 105 | 90.6 | 103 | 92.4 | 99.6 | 92.4 | 97.7 | 98.4 | 99.4 | 100 | 98.2 | 101 | 114 | 101 | 85.4 | 102 | 94.1 | 104 | > 10 | > 10 | > 10 | > 10 | > 10 |
| O=C([O-])c1ccccn1.O=C([O-])c1ccccn1.O=C([O-])c1ccccn1.[Cr+3] [chromium-picolinate] | 0 | 0 | 0 | 0 | 0 | 93 | 95.3 | 103 | 98.7 | 90.1 | 105 | 92 | 104 | 95.5 | 103 | 104 | 97.7 | 98.6 | 98.9 | 102 | 111 | 102 | 113 | 103 | 97.6 | 102 | 103 | 105 | 99.2 | 101 | > 10 | > 10 | > 10 | > 10 | > 10 |
| Clc1ccc(Cn2c(CN3CCCC3)nc3ccccc32)cc1 [clemizole] | 0 | 0.5 | 0 | 0 | 0 | 112 | 111 | 94.3 | 106 | 89.1 | 95.5 | 94.7 | 97.6 | 97 | 84.7 | 101 | 97.7 | 98.6 | 105 | 97.8 | 95.7 | 98.4 | 101 | 101 | 107 | 102 | 104 | 103 | 99.2 | 92.3 | > 10 | > 10 | > 10 | > 10 | > 10 |
| O=c1cc(N2CCOCC2)nc2c3ccccc3ccn12 [compound-401] | 2.5 | 0.2 | 0 | 0 | 0 | 93 | 108 | 99.4 | 82.8 | 78 | 96.8 | 108 | 96.4 | 99.1 | 85.8 | 96.2 | 99.8 | 97.2 | 101 | 95.5 | 93.8 | 94.4 | 97.9 | 99.5 | 107 | 102 | 97.9 | 98 | 98.3 | 95.9 | > 10 | > 10 | > 10 | > 10 | > 10 |
| CC(=O)OCC(=O)[C@@]1(O)CC[C@H]2[C@@H]3CCC4=CC(=O)CC[C@]4(C)[C@H]3C(=O)C[C@@]21C [cortisone-acetate] | 0 | 0 | 0 | 0 | 0 | 90 | 110 | 104 | 110 | 101 | 108 | 95.4 | 101 | 96.3 | 103 | 99.6 | 98.1 | 97 | 101 | 95.1 | 93.2 | 98.5 | 98.9 | 106 | 101 | 87.9 | 97.5 | 96.4 | 101 | 99.3 | > 10 | > 10 | > 10 | > 10 | > 10 |
| CC(C)(C)NCC(O)COc1cccc2[nH]c(C#N)cc12 (stereo not given) [cyanopindolol] | 0 | 0 | 0 | 0 | 0 | 93 | 95.7 | 89.6 | 102 | 95.8 | 103 | 103 | 95.8 | 99.7 | 97.5 | 100 | 98.8 | 96.7 | 94.7 | 101 | 85.4 | 105 | 100 | 96.8 | 92.8 | 102 | 103 | 100 | 104 | 97 | > 10 | > 10 | > 10 | > 10 | > 10 |

Source: the supplement of paper PMC13380429
